Data published in publication PMC11378028 (RSC Advances, 2024).
In brackets after ≈: the same amount, converted by molar mass.

What was measured:
S. aureus DNA gyrase = S. aureus DNA gyrase (Staphylococcus aureus, UniProt P0A0K8); assay: DNA gyrase supercoiling plate assay; assay type: biochemical; settings: read-out: RA (residual activity) S. aureus gyrase
[1] = target: S. aureus topoisomerase IV (Staphylococcus aureus, UniProt P0C1S7); assay: topoisomerase IV relaxation plate assay; assay type: biochemical; settings: read-out: RA (residual activity) S. aureus topo IV
Sequence of S. aureus topoisomerase IV (P0C1S7 whole entry): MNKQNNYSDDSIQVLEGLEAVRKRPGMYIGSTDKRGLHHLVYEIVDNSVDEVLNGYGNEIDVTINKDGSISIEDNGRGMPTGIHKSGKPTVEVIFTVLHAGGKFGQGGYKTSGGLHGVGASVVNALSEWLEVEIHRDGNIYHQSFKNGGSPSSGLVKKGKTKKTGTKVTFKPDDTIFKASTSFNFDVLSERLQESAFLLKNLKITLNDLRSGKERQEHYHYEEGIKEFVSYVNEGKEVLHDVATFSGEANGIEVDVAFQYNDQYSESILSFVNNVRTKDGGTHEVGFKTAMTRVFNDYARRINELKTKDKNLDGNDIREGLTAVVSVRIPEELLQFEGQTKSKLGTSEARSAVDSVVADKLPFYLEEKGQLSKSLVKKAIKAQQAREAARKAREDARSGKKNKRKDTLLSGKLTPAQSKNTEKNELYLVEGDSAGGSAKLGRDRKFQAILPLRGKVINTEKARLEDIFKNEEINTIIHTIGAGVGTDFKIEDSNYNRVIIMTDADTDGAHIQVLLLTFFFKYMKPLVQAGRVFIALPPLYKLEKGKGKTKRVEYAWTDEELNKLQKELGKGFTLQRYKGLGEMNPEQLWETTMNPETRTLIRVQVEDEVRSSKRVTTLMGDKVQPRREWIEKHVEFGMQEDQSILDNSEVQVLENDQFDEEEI
Sequence of S. aureus topoisomerase IV (P0C1U9 whole entry partner): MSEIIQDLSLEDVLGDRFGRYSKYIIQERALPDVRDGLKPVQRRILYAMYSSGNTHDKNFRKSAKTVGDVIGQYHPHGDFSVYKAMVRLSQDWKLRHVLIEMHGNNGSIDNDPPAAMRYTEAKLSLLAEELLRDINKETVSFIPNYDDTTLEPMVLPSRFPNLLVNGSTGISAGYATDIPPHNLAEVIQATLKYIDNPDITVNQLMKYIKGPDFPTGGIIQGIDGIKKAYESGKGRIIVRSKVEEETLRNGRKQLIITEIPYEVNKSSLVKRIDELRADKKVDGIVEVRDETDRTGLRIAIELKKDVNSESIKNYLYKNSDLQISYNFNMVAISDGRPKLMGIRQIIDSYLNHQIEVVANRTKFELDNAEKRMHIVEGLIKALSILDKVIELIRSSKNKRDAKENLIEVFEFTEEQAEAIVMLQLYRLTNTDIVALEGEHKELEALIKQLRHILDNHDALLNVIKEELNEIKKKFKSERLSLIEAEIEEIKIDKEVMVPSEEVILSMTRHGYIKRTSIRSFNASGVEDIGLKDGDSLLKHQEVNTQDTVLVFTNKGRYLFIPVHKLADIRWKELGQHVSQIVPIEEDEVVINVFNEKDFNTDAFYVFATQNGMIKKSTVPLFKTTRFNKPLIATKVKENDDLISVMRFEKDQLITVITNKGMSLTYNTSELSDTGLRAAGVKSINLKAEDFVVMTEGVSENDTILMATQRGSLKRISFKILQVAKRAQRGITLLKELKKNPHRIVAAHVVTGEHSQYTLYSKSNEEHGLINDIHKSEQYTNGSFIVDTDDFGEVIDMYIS

S. aureus ATCC 29213 [2] = assay: MIC, broth microdilution; assay type: cell-based, Staphylococcus aureus; settings: for MIC: Staphylococcus aureus, ATCC29213, read-out: MIC S. aureus ATCC 29213, broth microdilution
E. faecium ATCC 35667 = assay: MIC, broth microdilution; assay type: cell-based
K. aerogenes ATCC 13408 = assay: MIC, broth microdilution; assay type: cell-based; settings: Klebsiella aerogenes, ATCC13408, read-out: MIC K. aerogenes ATCC 13408
[3] = tested on: K. pneumoniae ATCC 700603; assay: MIC, broth microdilution; assay type: cell-based; settings: Klebsiella pneumoniae, ATCC700603, read-out: MIC K. pneumoniae ATCC 700603
E. coli DNA gyrase = E. coli DNA gyrase (Escherichia coli, UniProt P0AES6); assay: DNA gyrase supercoiling plate assay; assay type: biochemical; settings: IC50 E. coli gyrase, supercoiling assay
P. aeruginosa ATCC 27853 = assay: MIC, broth microdilution; assay type: cell-based; settings: Pseudomonas aeruginosa, ATCC27853, read-out: MIC P. aeruginosa ATCC 27853
E. coli ATCC 25922 = assay: MIC, broth microdilution; assay type: cell-based; settings: Escherichia coli, ATCC25922, read-out: MIC E. coli ATCC 25922
A. baumannii ATCC 19606 = assay: MIC, broth microdilution; assay type: cell-based; settings: Acinetobacter baumannii, ATCC19606, read-out: MIC A. baumannii ATCC 19606
E. coli topoisomerase IV = E. coli topoisomerase IV (Escherichia coli, UniProt P20083); assay: topoisomerase IV relaxation plate assay; assay type: biochemical
Sequence of E. coli topoisomerase IV (P20083 whole entry): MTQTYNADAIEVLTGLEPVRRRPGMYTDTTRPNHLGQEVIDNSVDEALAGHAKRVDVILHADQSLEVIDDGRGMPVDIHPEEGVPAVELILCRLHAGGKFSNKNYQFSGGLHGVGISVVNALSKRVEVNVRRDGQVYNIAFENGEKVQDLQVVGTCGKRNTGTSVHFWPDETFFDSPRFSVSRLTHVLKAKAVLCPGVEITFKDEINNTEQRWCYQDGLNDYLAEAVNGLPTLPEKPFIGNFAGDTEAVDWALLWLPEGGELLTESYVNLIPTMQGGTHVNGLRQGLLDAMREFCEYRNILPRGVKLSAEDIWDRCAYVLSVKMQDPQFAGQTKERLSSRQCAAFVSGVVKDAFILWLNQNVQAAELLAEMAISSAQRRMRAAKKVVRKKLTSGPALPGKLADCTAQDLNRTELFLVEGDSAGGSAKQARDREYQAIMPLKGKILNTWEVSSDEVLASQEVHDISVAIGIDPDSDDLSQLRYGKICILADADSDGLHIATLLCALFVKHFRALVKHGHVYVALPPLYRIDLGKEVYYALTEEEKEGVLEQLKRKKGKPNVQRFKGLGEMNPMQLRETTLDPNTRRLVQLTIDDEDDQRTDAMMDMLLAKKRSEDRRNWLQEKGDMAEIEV
Sequence of E. coli topoisomerase IV (P0AFI2 whole entry partner): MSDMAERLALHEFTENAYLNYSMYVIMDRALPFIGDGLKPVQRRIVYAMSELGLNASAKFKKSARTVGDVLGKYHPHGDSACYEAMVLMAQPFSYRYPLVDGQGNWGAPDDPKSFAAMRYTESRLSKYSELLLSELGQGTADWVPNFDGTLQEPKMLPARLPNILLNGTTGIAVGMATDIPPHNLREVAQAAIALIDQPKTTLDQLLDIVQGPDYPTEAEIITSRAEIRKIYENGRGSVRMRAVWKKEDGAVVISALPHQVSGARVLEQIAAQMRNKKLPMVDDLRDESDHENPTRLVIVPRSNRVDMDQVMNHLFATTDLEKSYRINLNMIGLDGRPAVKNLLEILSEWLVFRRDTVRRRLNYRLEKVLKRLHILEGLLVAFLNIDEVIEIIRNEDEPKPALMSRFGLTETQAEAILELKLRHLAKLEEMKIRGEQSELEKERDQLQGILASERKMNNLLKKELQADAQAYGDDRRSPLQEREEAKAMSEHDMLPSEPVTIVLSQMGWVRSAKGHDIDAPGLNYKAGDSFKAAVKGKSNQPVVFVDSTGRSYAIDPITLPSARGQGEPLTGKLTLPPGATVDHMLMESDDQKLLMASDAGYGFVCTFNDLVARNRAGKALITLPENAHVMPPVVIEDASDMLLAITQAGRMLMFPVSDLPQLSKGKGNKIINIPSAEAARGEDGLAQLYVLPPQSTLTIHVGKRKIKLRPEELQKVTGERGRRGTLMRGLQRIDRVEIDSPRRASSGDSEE

S. aureus ATCC 29213 [4] = assay: spontaneous frequency of resistance; assay type: cell-based, Staphylococcus aureus
MRSA clinical isolate-2 = assay: MIC against fluoroquinolone-resistant clinical isolate; assay type: cell-based; settings: Staphylococcus aureus, read-out: MIC MRSA clinical isolate-2
K. pneumoniae ATCC 10031 [5] = assay: MIC, broth microdilution; assay type: cell-based; settings: Klebsiella pneumoniae, ATCC10031, read-out: MIC K. pneumoniae ATCC 10031
K. pneumoniae NCTC 13440 = assay: MIC against fluoroquinolone-resistant clinical isolate; assay type: cell-based; settings: Klebsiella pneumoniae, NCTC13440, read-out: MIC K. pneumoniae NCTC 13440
[6] = tested on: S. aureus ATCC 43300 (MRSA); assay: MIC, broth microdilution; assay type: cell-based; settings: Staphylococcus aureus, ATCC43300|MRSA, read-out: MIC S. aureus ATCC 43300 (MRSA)
[7] = tested on: E. spp. cloacae ATCC 13047; assay: MIC, broth microdilution; assay type: cell-based; settings: read-out: MIC E. spp. cloacae ATCC 13047
E. faecalis ATCC 29212 = assay: MIC, broth microdilution; assay type: cell-based; settings: Enterococcus faecalis, ATCC29212, read-out: MIC E. faecalis ATCC 29212
K. pneumoniae SE K13 = assay: MIC against fluoroquinolone-resistant clinical isolate; assay type: cell-based; settings: Klebsiella pneumoniae, SEK13, read-out: MIC K. pneumoniae SE K13
K. pneumoniae ATCC 10031 [8] = assay: spontaneous frequency of resistance; assay type: cell-based, Klebsiella pneumoniae
MRSA clinical isolate-1 = assay: MIC against fluoroquinolone-resistant clinical isolate; assay type: cell-based; settings: Staphylococcus aureus, read-out: MIC MRSA clinical isolate-1
K. pneumoniae K9–K25 = assay: as above; assay type: cell-based; settings: Klebsiella pneumoniae, read-out: MIC K. pneumoniae K9–K25
[9] = tested on: S. aureus ATCC 29213 adapted lines; assay: MIC of adapted lines; settings: colonies from frequency of resistance plates
K. pneumoniae SE K14 = assay: MIC against fluoroquinolone-resistant clinical isolate; assay type: cell-based; settings: Klebsiella pneumoniae, SEK14, read-out: MIC K. pneumoniae SE K14
[10] = target: human DNA topoisomerase IIα (Homo sapiens, UniProt P11388); assay: human DNA topoisomerase IIα inhibition; assay type: biochemical
Sequence of human DNA topoisomerase IIα (P11388 whole entry): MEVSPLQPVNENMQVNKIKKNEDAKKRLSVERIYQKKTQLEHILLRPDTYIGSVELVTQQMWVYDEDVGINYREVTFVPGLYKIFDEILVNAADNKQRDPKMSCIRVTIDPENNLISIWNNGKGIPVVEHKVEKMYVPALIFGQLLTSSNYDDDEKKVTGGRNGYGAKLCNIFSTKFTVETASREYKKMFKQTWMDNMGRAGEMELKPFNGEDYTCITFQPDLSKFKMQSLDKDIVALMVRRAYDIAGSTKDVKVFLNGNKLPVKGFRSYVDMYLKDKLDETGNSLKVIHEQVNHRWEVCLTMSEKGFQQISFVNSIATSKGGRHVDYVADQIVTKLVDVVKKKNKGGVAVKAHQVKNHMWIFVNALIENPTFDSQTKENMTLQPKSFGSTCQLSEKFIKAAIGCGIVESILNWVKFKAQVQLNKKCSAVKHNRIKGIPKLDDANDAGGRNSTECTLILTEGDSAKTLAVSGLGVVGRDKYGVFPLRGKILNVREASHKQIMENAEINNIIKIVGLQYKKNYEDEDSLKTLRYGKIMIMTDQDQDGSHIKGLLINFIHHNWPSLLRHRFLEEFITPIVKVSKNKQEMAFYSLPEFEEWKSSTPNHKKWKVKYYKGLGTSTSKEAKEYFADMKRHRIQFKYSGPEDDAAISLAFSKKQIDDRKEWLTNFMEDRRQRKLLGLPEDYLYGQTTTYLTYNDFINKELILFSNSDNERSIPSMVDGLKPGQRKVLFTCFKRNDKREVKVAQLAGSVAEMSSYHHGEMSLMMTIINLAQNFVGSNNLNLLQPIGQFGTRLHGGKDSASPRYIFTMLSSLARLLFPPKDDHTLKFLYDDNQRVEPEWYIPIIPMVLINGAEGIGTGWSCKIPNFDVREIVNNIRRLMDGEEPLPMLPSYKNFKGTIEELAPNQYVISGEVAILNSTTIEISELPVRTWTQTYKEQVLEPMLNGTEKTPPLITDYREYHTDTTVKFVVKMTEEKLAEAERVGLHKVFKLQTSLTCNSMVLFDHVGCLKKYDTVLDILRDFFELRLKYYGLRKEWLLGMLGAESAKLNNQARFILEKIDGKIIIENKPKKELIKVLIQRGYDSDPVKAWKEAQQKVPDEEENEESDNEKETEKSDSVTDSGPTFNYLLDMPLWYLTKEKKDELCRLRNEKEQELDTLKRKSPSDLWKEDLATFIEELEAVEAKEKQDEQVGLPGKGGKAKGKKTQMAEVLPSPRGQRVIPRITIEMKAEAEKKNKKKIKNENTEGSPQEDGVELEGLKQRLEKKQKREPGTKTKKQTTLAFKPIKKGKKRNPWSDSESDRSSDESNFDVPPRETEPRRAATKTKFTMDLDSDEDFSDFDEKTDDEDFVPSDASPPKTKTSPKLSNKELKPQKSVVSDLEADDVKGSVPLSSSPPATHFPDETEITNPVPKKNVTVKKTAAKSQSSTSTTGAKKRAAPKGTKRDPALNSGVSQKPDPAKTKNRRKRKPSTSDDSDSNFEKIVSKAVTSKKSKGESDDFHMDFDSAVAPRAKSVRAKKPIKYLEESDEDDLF

P. aeruginosa DNA gyrase = P. aeruginosa DNA gyrase (Pseudomonas aeruginosa, UniProt Q9I7C2); assay: DNA gyrase supercoiling assay; assay type: biochemical
A. baumannii DNA gyrase = A. baumannii DNA gyrase (Acinetobacter baumannii, UniProt A0ABX6CA01); assay: DNA gyrase supercoiling assay; assay type: biochemical
A. baumannii ATCC 17978 = assay: MIC, broth microdilution; assay type: cell-based; settings: Acinetobacter baumannii, ATCC17978, read-out: MIC A. baumannii ATCC 17978
[11] = read-out: RA (residual activity) Human topo IIα

Row | SMILES | remaining activity at 1 µM [1] [%] | MIC (S. aureus ATCC 29213 [2]) [µg/mL] | MIC E. faecium ATCC 35667 (E. faecium ATCC 35667) [µg/mL] | MIC (K. aerogenes ATCC 13408) [µg/mL] | MIC [3] [µg/mL] | IC50 (E. coli DNA gyrase) [µM] | MIC (P. aeruginosa ATCC 27853) [µg/mL] | MIC (E. coli ATCC 25922) [µg/mL] | MIC (A. baumannii ATCC 19606) [µg/mL] | resistance-proneness compared to novobiocin (S. aureus ATCC 29213 [4]) | MIC (MRSA clinical isolate-2) [µg/mL] | MIC (K. pneumoniae ATCC 10031 [5]) [µg/mL] | MIC (K. pneumoniae NCTC 13440) [µg/mL] | MIC [6] [µg/mL] | MIC [7] [µg/mL] | MIC (E. faecalis ATCC 29212) [µg/mL] | MIC (K. pneumoniae SE K13) [µg/mL] | MIC (MRSA clinical isolate-1) [µg/mL] | MIC (K. pneumoniae K9–K25) [µg/mL] | MIC (K. pneumoniae SE K14) [µg/mL] | other results
1 | Cc1[nH]c(C(=O)Nc2ccc(C(=O)O)cc2N2CCN(C(=O)OC(C)(C)C)CC2)c(Cl)c1Cl [Compound 18a, 3-(4-(tert-Butoxycarbonyl)piperazin-1-yl)-4-(3,4-dichloro-5-methyl-1H-pyrrole-2-carboxamido)benzoic acid] | 21 | 4 to 32 (≈ 8.04 to 64.3 µM) | 16 (≈ 32.2 µM) | > 32 | > 32 | 0.159 | > 32 | > 32 | > 32 |  |  |  |  |  |  |  |  |  |  |  | remaining activity at 1 µM (S. aureus DNA gyrase): 54%; MIC S. aureus ATCC 29213 (S. aureus ATCC 29213 [2]; broth microdilution): 4 µg/mL (≈ 8.04 µM); remaining activity at 1 µM (E. coli topoisomerase IV; read-out: RA (residual activity) E. coli topo IV): 99%
2 | Cc1[nH]c(C(=O)Nc2ccc(-c3n[nH]c(=O)o3)cc2N2CCC[C@H](N)C2)c(Cl)c1Cl.Cl [Compound 23c, (S)-1-(2-(3,4-Dichloro-5-methyl-1H-pyrrole-2-carboxamido)-5-(5-oxo-4,5-dihydro-1,3,4-oxadiazol-2-yl)phenyl)piperidin-3-aminium chloride] |  | 2 |  | > 32 | > 32 |  |  |  | 4 | significantly less resistance-prone compared to novobiocin | 2 | 0.25 | > 64 | 2 | > 64 | 2 | 32 | 4 | > 64 | > 64 | resistance-proneness compared to novobiocin (K. pneumoniae ATCC 10031 [8]): significantly less resistance-prone compared to novobiocin; change in MIC values compared to the ancestor [9]: 4 fold; IC50 (E. coli topoisomerase IV): 0.448 µM; remaining activity at 50 µM [10, 11]: 90%
3 | Cc1[nH]c(C(=O)Nc2ccc(-c3n[nH]c(=O)o3)cc2N2CC[C@H](N)C2)c(Cl)c1Cl.Cl [Compound 23b, (S)-1-(2-(3,4-Dichloro-5-methyl-1H-pyrrole-2-carboxamido)-5-(5-oxo-4,5-dihydro-1,3,4-oxadiazol-2-yl)phenyl)pyrrolidin-3-aminium chloride] |  | 1 |  | > 32 | > 32 |  | 32 |  |  |  | 2 | 0.0625 | > 64 | 2 | 32 | 1 |  | 4 | > 64 | > 64 | IC50 (P. aeruginosa DNA gyrase): 0.00363 µM; IC50 (A. baumannii DNA gyrase): 0.0153 µM; IC50 [10]: 86.3 µM
4 | Cc1[nH]c(C(=O)Nc2ccc(C(=O)O)cc2N2CCCC(CN)C2)c(Cl)c1Cl.Cl (stereo not drawn) [Compound 20i, (1-(5-Carboxy-2-(3,4-dichloro-5-methyl-1H-pyrrole-2-carboxamido)phenyl)piperidin-3-yl)methanaminium chloride] | 0 |  | 32 | > 32 | > 32 | 0.00634 | > 32 | > 32 | > 32 |  |  |  |  |  |  |  |  |  |  |  | remaining activity at 0.1 µM (S. aureus DNA gyrase): 28%; IC50 (E. coli topoisomerase IV): 0.143 µM; remaining activity at 100 µM [10, 11]: 28%
5 | Cc1[nH]c(C(=O)Nc2ccc(-c3n[nH]c(=O)o3)cc2N2CCNCC2)c(Cl)c1Cl.Cl [Compound 23a, 4-(2-(3,4-Dichloro-5-methyl-1H-pyrrole-2-carboxamido)-5-(5-oxo-4,5-dihydro-1,3,4-oxadiazol-2-yl)phenyl)piperazin-1-ium chloride] |  | 2 |  |  |  |  | > 64 | > 64 |  | significantly less resistance-prone compared to novobiocin | 2 | 0.25 | > 64 | 4 | > 64 | 0.5 | > 64 | 4 | > 64 | > 64 | MIC (A. baumannii ATCC 17978): > 64 µg/mL; resistance-proneness compared to novobiocin (K. pneumoniae ATCC 10031 [8]): significantly less resistance-prone compared to novobiocin; remaining activity at 100 µM [10, 11]: 86%
